SMILES strings stand for the structures.

Consider one compound from patent publication US20260137653A1, “USE OF HEROMBOPAG OR PHARMACEUTICALLY ACCEPTABLE SALT THEREOF IN TREATMENT OF TUMOR CHEMOTHERAPY-INDUCED THROMBOCYTOPENIA” (JIANGSU HENGRUI PHARMACEUTICALS CO., LTD., priority 2022, published 2026).

The series deals with patients with chemotherapy-induced thrombocytopenia (platelet count <75×10^9/L, chemotherapy delay ≥1 week). Put plainly: Randomized placebo-controlled clinical study of herombopag olamine tablets in thrombocytopenia induced by chemotherapy for malignant tumors (Example 1). It is filed as in vivo, human. As to the method: Investigational drug: herombopag olamine tablets, 2.5 mg/tablet, manufactured and provided by Jiangsu Hengrui Pharmaceuticals Co., Ltd.
Control drug: herombopag olamine simulated tablets (placebo), 2.5 mg/tablet, identical in shape, color, weight, etc. to the herombopag olamine tablets, manufactured and provided by Jiangsu Hengrui Pharmaceuticals Co., Ltd.
Patients must meet all of the following inclusion criteria to be eligible for the study: • 1. Age between 18 years and 75 years (inclusive), regardless of gender. • 2. Pathologically or cytologically confirmed diagnosis of malignant tumors, including lung cancer (small cell or non-small cell), breast cancer, bladder cancer, etc. • 3. The subject is currently receiving a chemotherapy regimen on a 21-day cycle (excluding other chemotherapy cycle lengths) and requires the use of one or more chemotherapeutic drugs, such as: • Antimetabolites, including gemcitabine, etc.; • Platinum-based agents, including carboplatin, nedaplatin, cisplatin, lobaplatin, etc.; • Anthracyclines, including doxorubicin, daunorubicin, epirubicin, etc.; • Alkylating agents, including cyclophosphamide, ifosfamide, etc. • 4. The subject experiences a delay of ≥1 week in chemotherapy relative to the expected time due to thrombocytopenia, and the platelet count remains <75×10^9/L. • 5. Physical fitness status ECOG score of 0-1. • 6. The subject has an expected survival period of ≥12 weeks at the time of screening and is able to receive at least 2 or more cycles of the current chemotherapy regimen. • 7. Subjects of childbearing potential must agree to use reliable methods of contraception throughout the study (including male or female condoms, contraceptive foams, contraceptive gels, contraceptive films, contraceptive creams, contraceptive suppositories, abstinence, placement of intrauterine devices, etc.). Female subjects who have undergone a hysterectomy, bilateral salpingectomy, or bilateral tubal ligation or have been postmenopausal for more than 1 year and male subjects who have undergone a bilateral vasectomy or ligation are excluded. • 8. The subject is willing to participate in the study, can provide written informed consent, and has good compliance.
Patients meeting any one of the following criteria are excluded from the study: • 1. Screening or baseline platelet count of <30×10^9/L. • 2. Platelet count of <75×10^9/L prior to the first dose of chemotherapy. • 3. Hematopoietic diseases other than chemotherapy-induced thrombocytopenia (CIT), including but not limited to leukemia, primary immune thrombocytopenia, myeloproliferative diseases, multiple myeloma, and myelodysplastic syndrome. • 4. […]

Turning to `CC1=NN(c2ccc3c(c2)CCCC3)C(=O)/C1=N\Nc1cccc(-c2ccc(C(=O)O)o2)c1O` [herombopag olamine tablets, herombopag], for the setting “95% CI 2.82-38.65, p=0.0001”, the “OR value for achieving the primary study endpoint, investigational group vs placebo group” value is listed as 10.44. Moreover, the “proportion of subjects in which the drug is therapeutically effective (patients achieving the primary study endpoint)” value (investigational group n=28 (17/28), starting dose 7.5 mg once daily oral, two consecutive 21-day chemotherapy cycles, 95% CI 40.6-78.5, placebo 4/31 (12.9%)) was determined as 60.7%. In addition, the “incidence of adverse events” value (investigational group vs placebo group) was “comparable between the investigational group and the placebo group”. Moreover, for the setting “investigational group, starting dose 7.5 mg once daily”, the “grade 3 or higher grade treatment-related adverse events or treatment-related serious adverse events” value is “No grade 3 or higher grade treatment-related adverse events or treatment-related serious adverse events were observed”.
